In brackets after ≈: the same amount, converted by molar mass.
Experiments:
[1] = test system: Kasumi-1; assay: Cytotoxicity, viability by Trypan blue exclusion; conditions: four days
Description: (§4) HL-60, K562, U937, Reh and Daudi cells were obtained from the American Type Culture Collection (Rockville, Md.). Kasumi-1, NB4, BV173, SUPB13, and RS4;11 cells were provided by the Section of Hematology/Oncology, University of Illinois College of Medicine, Chicago, Ill. All cell lines were maintained in suspension culture using RPMI 1640 medium supplemented with 10% heat-inactivated fetal bovine serum, 100 units of penicillin/ml and 100 μg of streptomycin/ml at 37° C. in a humidified atmosphere of 5% CO2 in air. All cells were routinely tested for mycoplasma contamination.
(§5) Cellular viability was monitored by Trypan blue exclusion. Inhibition of [3H]thymidine incorporation into DNA was determined to assess the level of cell proliferation as well as DNA synthesis inhibition. […] The filters were counted using a Microbeta™ liquid scintillation counter (Wallac, Turku, Finland) with scintillation fluid. Finally, the percentage of [3H]thymidine incorporation per 10^6 cells was calculated by dividing the dpm of sample-treated cells by the dpm of DMSO-treated cells.
(§6) ^aViability was determined by Trypan blue exclusion in duplicate samples. […] Results are expressed as median inhibitory cell concentrations of two independent experiments (±standard deviations).

[2] = Cytotoxicity, viability by Trypan blue exclusion; conditions: human, Kasumi-1 cells, Cytotoxicity (IC50, ng/ml), four days
Description: as §4, §5, §6

[3] = test system: K562; assay: NSE expression (monocyte marker); assay type: cell-based; conditions: 4 days
Description: (§1) Cell lines were tested using a 4-day incubation protocol, unless otherwise specified.
(§2) 2) NBT/NSE/SE. Evaluation of NBT reduction was used to assess the ability of sample-treated cells to produce superoxide when challenged with TPA. A 1:1 (v/v) mixture of a cell suspension (10^6 cells) and TPA/NBT solution (2 mg/ml NBT and 1 μg/ml TPA in phosphate buffer saline (PBS)) was incubated for 1 h at 37° C. Then, cells were smeared on glass slides, and counterstained with 0.3% (w/v) safranin O in methanol. Positive cells reduce NBT yielding intracellular black-blue formazan deposits. NSE/SE are monocytic/granulocytic esterases that can be visualized by cytochemical staining using commercially available kits (α-Naphthyl Acetate Esterase and Naphthol As-D Chloroacetate Esterase kits, Sigma Chemical Co., St. Louis, Mo.). Positive-stained cells were quantified by microscopic examination of >200 cells. Results were expressed as a percentage of positive cells.
(§3) Concentration-dependent effect of brusatol on: (a) NBT-reduction (monocyte/granulocyte marker) of HL-60, K562, NB4, U937, and BV173 and (b) NSE expression (monocyte marker) in K562, Kasumi-1, NB4, and BV173 cells, respectively. Data points are the mean of duplicate samples.

[4] = test system: NB4; assay: NSE expression (monocyte marker); assay type: cell-based; conditions: 4 days
Description: as §1, §2, §3

[5] = test system: BV173; assay: NSE expression (monocyte marker); assay type: cell-based; conditions: 4 days
Description: as §1, §2, §3

[6] = test system: Kasumi-1; assay: NSE expression (monocyte marker); assay type: cell-based; conditions: 4 days
Description: as §1, §2, §3

[7] = test system: RS4;11; assay: Cytotoxicity, viability by Trypan blue exclusion; conditions: four days
Description: (§7) All cell lines were maintained in suspension culture using RPMI 1640 medium supplemented with 10% heat-inactivated fetal bovine serum, 100 units of penicillin/ml and 100 μg of streptomycin/ml at 37° C. in a humidified atmosphere of 5% CO2 in air.
(§8) Cellular viability was monitored by Trypan blue exclusion.
as §6

[8] = Cytotoxicity, viability by Trypan blue exclusion; conditions: human, RS4;11 cells, Cytotoxicity (IC50, ng/ml), four days
Description: as §7, §8, §6

SMILES: COC(=O)[C@@]12OC[C@]34[C@H]([C@@H](O)[C@@H]1O)[C@@]1(C)CC(=O)C(O)=C(C)[C@@H]1C[C@H]3OC(=O)[C@H](OC(=O)C=C(C)C)[C@@H]24 [compound 1, brusatol]
- Cytotoxicity (IC50, ng/ml) [1]: 75 ± 5.1 ng/mL
- IC50 at 4 days [2]: 0.05 to 0.1 µg/mL (≈ 0.0961 to 0.192 µM)
- upregulated expression of NSE [3]: approximately 50%
- upregulated expression of NSE [4]: approximately 50%
- upregulated expression of NSE [5]: approximately 35%
- upregulated expression of NSE [6]: approximately 50%
- Cytotoxicity (IC50, ng/ml) [7]: 25 ± 2 ng/mL
- IC50 at 4 days [8]: < 0.025 µg/mL
